We go through 1 compound from US20120309087A1, “CANCER THERAPY” (University Court of The University of Dundee, priority 2006, published 2012).

Assay [1] relates to ARE-driven luciferase activity in AREc32 cells. As to the kind of experiment: Antagonism of induced ARE-driven luciferase activity in AREc32 cells. The class given is cell-based, human.
In assay [2] the test system is GST, GCLC and NQO1 in the small intestine. As to the kind of experiment: ARE-regulated proteins in small intestine of mice on vitamin A deficient diet. The class given is in vivo. The settings on record: wild-type mice; ATRA i.p. 10 mg/kg daily for last 2 weeks of VAD diet. As for the experimental part: Wild-type (nrf2^+/+) and knockout (KO, nrf2^−/−) mice, 8 weeks old, were placed on control or vitamin A deficient (VAD) diet for six weeks as described in “Materials and Methods II”. Portions (5 μg protein) of crude extracts from small intestine of wild-type and KO mice were subjected to Western blotting with specific antibodies against NQO1, GstM5, GstA1/2 and GCLC. Each lane contains a sample from an individual mouse. […] These animals were sacrificed and immunoblotting for GST, GCLC and NQO1 performed as before.
Homozygous Nrf2 KO mice and mouse genotyping were as described previously (Itoh et al., 1997). Two month old, C57BL/6 nrf2^−/− and nrf2^+/+ male mice were used in this study. Animals were maintained in a 12-h light-dark cycle, with free access to food and water. The mice were weighed daily during the experiment period. All animal procedures were carried out under UK Home Office license and after gaining local ethical committee approval.
Two feeding experiments were carried out. In Experiment 1, at the first stage, which lasted for four weeks, Nrf2 (+/+) mice were maintained on a retinoic acid deficient VAD diet (Special Diet Services, Witham, Essex, UK). […] In experiment 2, Nrf2 (−/−) mice were maintained on control or VAD diet for six weeks. […]

Assay [3] relates to AKR1C protein in Caco-2 cells. The assay is described as follows: AKR1C protein in Caco-2 cells (Western blotting). The settings on record: sulforaphane 5 μM, BTB09463 5 μM or Retinoic acid 1 μM, 24 hrs. It is filed as cell-based, human. As for the experimental part: Method: AREc32 cells were seeded out in 96 well plates and treated with DMSO (control), tBHQ (50 μM), tBHQ+BTB09463 (5 μM) or tBHQ+Retinoic acid (1 μM). After 24 hours incubation, cells were washed and lysed before measuring luciferase activity. BTB09463 is 1-{4-[(3,4-dichlorobenzyl)oxy]phenyl}ethan-1-one. […] Method: AREc32 cells were seeded out in 96 well plates and dosed with BTB09463 (2.5, 5 or 10 μM) for 0, 24 or 48 hrs before treatment with tBHQ (50 μM). 24 hours after the addition of tBHQ, cells were washed and lysed before measuring luciferase activity. […] Method: ARE c32 cells were seeded out in 96 well plates and treated with DMSO (control), tBHQ (50 μM), tBHQ+retinoid (0.25, 0.5 and 1 μM). After 24 hours incubation, cells were washed and lysed before measuring luciferase activity. […] See FIG. 16 Method: A. Caco-2 cells were treated with the known ARE-gene inducer sulforaphane (5 μM), either alone or concomitantly with BTB09463 (5 μM) or Retinoic acid (1 μM). After 24 hrs, cell lysates were prepared and Western blotting performed to measure the levels of AKR1C protein. B. MCF7 cells were treated with sulforaphane (5 μM), either alone or concomitantly with BTB09463 (5 μM). After 24 hrs, cell lysates were prepared and Western blots performed to detect the levels of AKR1C and NQO1; GAPDH was used as a loading control in MCF7 cells. […] Method: Caco-2 cells were treated with DMSO (control), BTB09463 (5 μM), sulforaphane (5 μM) or a combination of sulforaphane plus BTB09463. After 24 hrs treatment, cells were harvested and RNA isolated. cDNA for each sample was generated by reverse transcription and subsequently used in real time PCR analysis of gene transcription (TaqMan analysis) for the ARE-driven genes AKR1C1 and NQO1. Data was normalised to the internal control 18S RNA and the relative levels of AKR1C1 and NQO1 calculated using the comparative CT method. […] Method: MCF7 cells were treated with the known ARE-gene inducer sulforaphane (5 μM), either alone or with various retinoids (0.5 μM). After 24 hrs, cell lysates were prepared and Western blots were performed to detect the levels of AKR1C protein present. […] See FIG. 19 Method: ARE reporter cell line AREc23 was seeded into 96 well plates and treated with a previously determined non-toxic concentration of cytotoxic drug. After 24 hours incubation, cells were washed and lysed before measuring luciferase activity. […] See FIG. 20a Method: ARE reporter cell line AREc23 was seeded into 96 well plates and treated with DMSO (control), Carmustine (100 μM), Carmustine+BTB09463 (5 μM) or Carmustine+Retinoic acid (5 μM) After 24 hours incubation, cells were washed and lysed before measuring luciferase activity. […] After 24 hours incubation, cells were washed and lysed before measuring luciferase activity. […]
Background: A western blot detects proteins with antibodies after separation by electrophoresis.

The subject of assay [4] is AKR1C1, NQO1, GCLC, GCLM mRNA in A549 cells. The assay is described as follows: Constitutive mRNA of ARE-driven genes in A549 cells (Taqman). The following applies: 24 hrs. It is filed as cell-based, human. Background: Real-time PCR tracks product formation cycle by cycle.
The target of assay [5] is interaction between RARα and Nrf2 (Homo sapiens, UniProt P10276). The assay is described as follows: Co-immunoprecipitation of RARα and Nrf2. The class given is binding. The settings on record: co-immunoprecipitation experiments.
Sequence of interaction between RARα and Nrf2 (P10276 whole entry): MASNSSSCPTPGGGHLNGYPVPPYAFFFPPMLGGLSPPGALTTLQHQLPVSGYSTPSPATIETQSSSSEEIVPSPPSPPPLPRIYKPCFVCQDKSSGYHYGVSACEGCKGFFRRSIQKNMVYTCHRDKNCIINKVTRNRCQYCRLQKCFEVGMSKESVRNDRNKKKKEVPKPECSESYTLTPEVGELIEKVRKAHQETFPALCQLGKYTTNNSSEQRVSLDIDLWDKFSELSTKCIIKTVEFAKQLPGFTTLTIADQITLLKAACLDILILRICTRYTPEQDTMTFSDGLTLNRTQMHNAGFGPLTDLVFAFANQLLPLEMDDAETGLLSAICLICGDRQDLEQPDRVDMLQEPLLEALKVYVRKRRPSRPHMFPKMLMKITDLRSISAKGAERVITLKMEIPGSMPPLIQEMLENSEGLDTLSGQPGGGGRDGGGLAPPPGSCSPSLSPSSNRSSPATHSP
Sequence of interaction between RARα and Nrf2 (Q16236 whole entry partner): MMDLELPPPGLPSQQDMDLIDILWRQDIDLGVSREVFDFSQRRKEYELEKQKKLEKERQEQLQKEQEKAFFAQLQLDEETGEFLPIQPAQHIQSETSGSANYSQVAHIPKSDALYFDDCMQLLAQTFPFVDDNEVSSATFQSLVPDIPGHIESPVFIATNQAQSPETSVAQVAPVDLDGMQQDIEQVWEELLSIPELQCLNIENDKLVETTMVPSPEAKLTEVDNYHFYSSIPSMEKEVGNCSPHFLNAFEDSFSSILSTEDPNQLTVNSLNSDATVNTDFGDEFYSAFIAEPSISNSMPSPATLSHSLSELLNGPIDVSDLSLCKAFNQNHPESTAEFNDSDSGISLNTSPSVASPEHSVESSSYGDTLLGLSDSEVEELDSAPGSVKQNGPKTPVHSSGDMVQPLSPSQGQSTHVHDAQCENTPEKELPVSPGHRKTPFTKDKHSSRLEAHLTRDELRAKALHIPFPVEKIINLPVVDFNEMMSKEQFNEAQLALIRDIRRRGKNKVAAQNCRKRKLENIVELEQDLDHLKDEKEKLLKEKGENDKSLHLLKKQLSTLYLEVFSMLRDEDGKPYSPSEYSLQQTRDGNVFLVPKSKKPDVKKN
Assay [6] deals with AKR1C mRNA in AREc32 cells. The assay is described as follows: AKR1C mRNA in AREc32 cells (TaqMan).
Assay [7] deals with AKR1C protein in AREc32 cells. As to the kind of experiment: AKR1C protein in AREc32 cells (western blotting). The settings on record: 1 μM ATRA, 10 μM tBHQ; scanning of the Western blots.
Assay [8] deals with Nrf2. The assay is described as follows: Nuclear Nrf2 level in AREc32 cells (western blot of nuclear extracts). The following applies: 10 μM tBHQ plus 1 μM ATRA, 24 h.
Assay [9] deals with binding of Nrf2 to an ARE sequence. As to the kind of experiment: Biotinylated ARE oligonucleotide pull-down assay, AREc32 nuclear extracts. The settings on record: 10 μM tBHQ with 1 μM ATRA, 24 h.
In assay [10] the test system is protein complexes binding to an ARE sequence. The assay is described as follows: Electrophoretic mobility shift assay with ARE probe, AREc32 nuclear extracts. The settings on record: 10 μM tBHQ with 1 μM ATRA, 24 h.
[11] abbreviates: 1 μM ATRA with 10 μM tBHQ, acrolein, NF or Sul, 24 h.

With `CC1=C(/C=C/C(C)=C/C=C/C(C)=C/C(=O)O)C(C)(C)CCC1` [ATRA, all trans-retinoic acid], in assay [1] (setting [11]), the “effect on increase in ARE-driven luciferase activity by inducing agents” value is listed as “significantly attenuated” and the “luciferase activity following subtraction of the DMSO control” value is recorded as “almost complete ablation of luciferase activity”. Moreover, in assay [1] (1 μM ATRA with cisplatin, melphalan, chlorambucil or BCNU, no BSO), the “induction of ARE-driven luciferase activity by anticancer drugs” value was “prevented”. Besides, the “ARE responses to anticancer drugs after BSO pre-treatment” value in assay [1] (1 μM ATRA, 50 μM BSO pre-treatment, after subtraction of DMSO control) is given as “reduced almost to background levels”. Besides, the “lag phase before increase of luciferase activity” value in assay [1] (10 μM tBHQ plus 1 μM ATRA simultaneously) was determined as 16 h. Besides, the “suppression of tBHQ induction of luciferase” value in [1] (50 μM tBHQ + 1 μM Retinoic acid, 24 h) is listed as around 75%. In assay [1] (Carmustine 100 μM + BTB09463 5 μM or Retinoic acid 5 μM, 24 hours), the “carmustine-mediated induction of luciferase activity” value is “completely suppress”. Moreover, in assay [2], the “induction of ARE-driven genes (GstM5, GCLC, NQO1, GstA1) by VAD diet in the small intestine” value is reported as “almost completely reversed”. In addition, the “sulforaphane induction of AKR1C protein” value in assay [3] was “dramatically reduced”. In addition, in [4] (BTB09463 1, 5, 20, 40 μmol/l or retinoids 0.050, 0.20, 0.50, 2.0 μmol/l), the “constitutive expression of AKR1C1 mRNA” value is “inhibited the constitutive expression of AKR1C1 in a concentration-dependent manner”. Further, the “constitutive mRNA levels of NQO1, GCLC and GCLM” value in assay [4] (BTB09463 1-40 μmol/l or retinoic acid 0.050-2.0 μmol/l) was “repressed the constitutive mRNA levels of NQO1, GCLC and GCLM in a concentration-dependent manner”. In addition, the “association between RARα and Nrf2” value in [5] is “greatly promoted”. In addition, the “inhibition of tBHQ induction of AKR1C1 mRNA” value in assay [6] (1 μM ATRA, after subtracting the DMSO control) is “approximately 85%”. The “induction of AKR1C1 mRNA by tBHQ on co-incubation” value in assay [6] (10 μM tBHQ plus 1 μM ATRA, 24 h) is listed as 3 fold. Further, in assay [7], the “reduction of tBHQ-induced AKR1C protein” value is listed as “approximately 50%”. Besides, the “nuclear translocation / nuclear concentration of Nrf2” value in assay [8] is “did not block nuclear translocation of Nrf2”. Further, in [9], the “binding of Nrf2 to the ARE (pull-down)” value is recorded as “inhibited the binding of Nrf2 to the ARE”. Besides, in [10], the “binding of complexes to core ARE sequence (EMSA)” value is recorded as “binding was reduced”.
